According to patent US10000456B2, “Polycyclic compounds as lysophosphatidic acid receptor antagonists” (AMIRA PHARMACEUTICALS, INC., priority 2009, dated 2018):

Tested on: A2058 human melanoma cells
Test: LPA1 chemotaxis assay
Type: cell-based
Conditions: LPA 100 nM, read-out: IC50, inhibition of LPA-driven chemotaxis
Protocol: Chemotaxis of the A2058 human melanoma cells was measured using the Neuroprobe CHEMOTX® System plates ([…], 5.7 mm diameter sites). The filter sites were coated with 0.001% fibronectin (Sigma) in 20 mM Hepes, pH 7.4 and allowed to dry. A2058 cells were serum-starved for 24 hours, then harvested with Cell Stripper and resuspended in DMEM containing 0.1% fatty-acid-free bovine serum albumin (BSA) to a concentration of 1×10^6/ml. Cells were mixed with an equal volume of test compound (2×) in DMEM containing 0.1% fatty-acid-free BSA and incubated at 37° C. for 15 minutes. LPA (100 nM in DMEM containing 0.1% fatty-acid-free BSA) or vehicle was added to each well of the lower chamber and 50 μl of the cell suspension/test compound mix was applied to the upper portion of the CHEMOTX® plate. Plates were incubated at 37° C. for three hours and then the cells removed from the upper portion by rinsing with PBS and scraping. The filter was dried then stained with HEMA 3® Staining System (Fisher Scientific). The absorbance of the filter was read at 590 nm and IC50s were determined using SYMYX® Assay Explorer.

IC50, < 100 nM:
Cc1noc(-c2ccc(-c3ccc(C4(C(=O)O)CC4)cc3)cc2)c1Nc1cncc(-c2ccccc2)c1 [Compound 58, 1-{4′-[3-Methyl-4-(5-phenyl-pyridin-3-ylamino)-isoxazol-5-yl]-biphenyl-4-yl}-cyclopropanecarboxylic acid]
Cc1noc(-c2ccc(-c3ccc(C4(C(=O)NS(C)(=O)=O)CC4)cc3)cc2)c1C(O)c1cn(Cc2ccccc2)nn1 (single isomer, unassigned) [Compound 91, N-[1-(4′-{4-[(1-Benzyl-1H-[1,2,3]triazol-4-yl)-hydroxy-methyl]-3-methyl-isoxazol-5-yl}-biphenyl-4-yl)-cyclopropanecarbonyl]-methanesulfonamide]
Cc1noc(-c2ccc(-c3ccc(C4(C(=O)O)CC4)cc3)cc2)c1Nc1cc(-c2ccccc2)ccn1 [Compound 67, 1-{4′-[3-Methyl-4-(4-phenyl-pyridin-2-ylamino)-isoxazol-5-yl]-biphenyl-4-yl}-cyclopropanecarboxylic acid]
Cc1noc(-c2ccc(-c3ccc(C4(C(=O)O)CC4)cc3)cc2)c1Nc1cccc(Cc2ccc(F)cc2)n1 [Compound 47, 1-(4′-{4-[6-(4-Fluoro-benzyl)-pyridin-2-ylamino]-3-methyl-isoxazol-5-yl}-biphenyl-4-yl)-cyclopropanecarboxylic acid]
Cc1noc(-c2ccc(-c3ccc(C4(C(=O)O)CC4)cc3)cc2)c1Nc1cccc(-c2cc(F)ccc2Cl)n1 [Compound 79, 1-(4′-{4-[6-(2-Chloro-5-fluoro-phenyl)-pyridin-2-ylamino]-3-methyl-isoxazol-5-yl}-biphenyl-4-yl)-cyclopropanecarboxylic acid]
Cc1noc(-c2ccc(-c3ccc(C4(C(=O)O)CC4)cc3)cc2)c1Nc1cccc(-c2ccccc2)c1 [Compound 39, 1-{4′-[4-(Biphenyl-3-ylamino)-3-methyl-isoxazol-5-yl]-biphenyl-4-yl}-cyclopropanecarboxylic acid]
Cc1noc(-c2ccc(-c3ccc(C4(C(=O)O)CC4)cc3)cc2)c1Nc1cccc(-c2cccc(F)c2C)n1 [Compound 83, 1-(4′-{4-[6-(3-Fluoro-2-methyl-phenyl)-pyridin-2-ylamino]-3-methyl-isoxazol-5-yl}-biphenyl-4-yl)-cyclopropanecarboxylic acid]
Cc1noc(-c2ccc(-c3ccc(C4(C(=O)O)CC4)cc3)cc2)c1Nc1cccc(-c2ccccc2Cl)n1 [Compound 60, 1-(4′-{4-[6-(2-Chloro-phenyl)-pyridin-2-ylamino]-3-methyl-isoxazol-5-yl}-biphenyl-4-yl)-cyclopropanecarboxylic acid]
Cc1noc(-c2ccc(-c3ccc(C4(C(=O)O)CC4)cc3)cc2)c1C(O)c1cncc(Cc2ccccc2)c1 (stereo not drawn) [Compound 27, 1-(4′-{4-[(5-Benzyl-pyridin-3-yl)-hydroxy-methyl]-3-methyl-isoxazol-5-yl}-biphenyl-4-yl)-cyclopropanecarboxylic acid]
Cc1noc(-c2ccc(-c3ccc(C4(C(=O)NS(C)(=O)=O)CC4)cc3)cc2)c1C(O)c1nnc(Cc2ccccc2)o1 (single isomer, unassigned) [Compound 92, N-[1-(4′-{4-[(5-Benzyl-[1,3,4]oxadiazol-2-yl)-hydroxy-methyl]-3-methyl-isoxazol-5-yl}-biphenyl-4-yl)-cyclopropanecarbonyl]-methanesulfonamide]
Cc1noc(-c2ccc(-c3ccc(C4(C(=O)NS(C)(=O)=O)CC4)cc3)cc2)c1Nc1cccc(Cc2ccccc2)n1 [Compound 95, N-(1-{4′-[4-(6-Benzyl-pyridin-2-ylamino)-3-methyl-isoxazol-5-yl]-biphenyl-4-yl}-cyclopropanecarbonyl)-methanesulfonamide]
Cc1noc(-c2ccc(-c3ccc(C4(C(=O)O)CC4)cc3)cc2)c1Nc1cccc(Cc2cccc(F)c2)n1 [Compound 46, 1-(4′-{4-[6-(3-Fluoro-benzyl)-pyridin-2-ylamino]-3-methyl-isoxazol-5-yl}-biphenyl-4-yl)-cyclopropanecarboxylic acid]
Cc1noc(-c2ccc(-c3ccc(C4(C(=O)O)CC4)cc3)cc2)c1Nc1cccc(-c2ccccc2)n1 [Compound 33, 1-{4′-[3-Methyl-4-(6-phenyl-pyridin-2-ylamino)-isoxazol-5-yl]-biphenyl-4-yl}-cyclopropanecarboxylic acid]
Cc1noc(-c2ccc(-c3ccc(C4(C(=O)O)CC4)cc3)cc2)c1Nc1nnc(Cc2ccccc2)o1 [Compound 44, 1-{4′-[4-(5-Benzyl-[1,3,4]oxadiazol-2-ylamino)-3-methyl-isoxazol-5-yl]-biphenyl-4-yl}-cyclopropanecarboxylic acid]
COc1ccc(F)cc1-c1cccc(Nc2c(C)noc2-c2ccc(-c3ccc(C4(C(=O)O)CC4)cc3)cc2)n1 [Compound 75, 1-(4′-{4-[6-(5-Fluoro-2-methoxy-phenyl)-pyridin-2-ylamino]-3-methyl-isoxazol-5-yl}-biphenyl-4-yl)-cyclopropanecarboxylic acid]
Cc1noc(-c2ccc(-c3ccc(C4(C(=O)O)CC4)cc3)cc2)c1Nc1cccc(Cc2ccccc2F)n1 [Compound 45, 1-(4′-{4-[6-(2-Fluoro-benzyl)-pyridin-2-ylamino]-3-methyl-isoxazol-5-yl}-biphenyl-4-yl)-cyclopropanecarboxylic acid]
Cc1noc(-c2ccc(-c3ccc(C4(C(=O)O)CC4)cc3)cc2)c1Nc1cccc(-c2cccc(F)c2)n1 [Compound 52, 1-(4′-{4-[6-(3-Fluoro-phenyl)-pyridin-2-ylamino]-3-methyl-isoxazol-5-yl}-biphenyl-4-yl)-cyclopropanecarboxylic acid]
Cc1noc(-c2ccc(-c3ccc(C4(C(=O)O)CC4)cc3)cc2)c1C(O)c1nnc(Cc2ccccc2)o1 (stereo not drawn) [Compound 13, 1-(4′-{4-[(5-Benzyl-[1,3,4]oxadiazol-2-yl)-hydroxy-methyl]-3-methyl-isoxazol-5-yl}-biphenyl-4-yl)-cyclopropanecarboxylic acid]
Cc1noc(-c2ccc(-c3ccc(C4(C(=O)O)CC4)cc3)cc2)c1Nc1cccc(-c2cccc(C(F)(F)F)c2)n1 [Compound 41, 1-(4′-{3-Methyl-4-[6-(3-trifluoromethyl-phenyl)-pyridin-2-ylamino]-isoxazol-5-yl}-biphenyl-4-yl)-cyclopropanecarboxylic acid]
Cc1noc(-c2ccc(-c3ccc(C4(C(=O)O)CC4)cc3)cc2)c1Nc1cncc(-c2cccc(C(F)(F)F)c2)c1 [Compound 68, 1-(4′-{3-Methyl-4-[5-(3-trifluoromethyl-phenyl)-pyridin-3-ylamino]-isoxazol-5-yl}-biphenyl-4-yl)-cyclopropanecarboxylic acid]
Cc1noc(-c2ccc(-c3ccc(C4(C(=O)O)CC4)cc3)cc2)c1Nc1cccc(Cc2ccccc2)c1 [Compound 49, 1-{4′-[4-(3-Benzyl-phenylamino)-3-methyl-isoxazol-5-yl]-biphenyl-4-yl}-cyclopropanecarboxylic acid]
